For data set [1] the following is noted: cited from earlier work.
A further data set concerns the target T1, GLP-1 receptor (GLP-1R) (Rattus norvegicus, UniProt P32301).
T1 construct: endogenous in cells; host or cells: rat INS-1 cells
T1 sequence (P32301 22-463): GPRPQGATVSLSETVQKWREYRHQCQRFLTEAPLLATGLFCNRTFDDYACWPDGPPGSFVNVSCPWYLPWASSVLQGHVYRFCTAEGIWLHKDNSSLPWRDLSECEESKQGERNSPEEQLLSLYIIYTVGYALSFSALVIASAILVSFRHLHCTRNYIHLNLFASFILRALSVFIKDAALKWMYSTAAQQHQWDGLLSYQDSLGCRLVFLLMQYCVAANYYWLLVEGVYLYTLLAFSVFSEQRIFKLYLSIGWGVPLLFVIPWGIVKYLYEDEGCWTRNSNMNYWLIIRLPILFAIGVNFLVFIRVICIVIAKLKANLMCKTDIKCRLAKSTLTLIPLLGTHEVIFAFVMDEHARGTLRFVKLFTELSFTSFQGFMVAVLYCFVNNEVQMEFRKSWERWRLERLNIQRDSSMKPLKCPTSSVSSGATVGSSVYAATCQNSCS
Nature of the data set: GLP-1 receptor binding assay (cellular ELISA). As to the method: Cells were rinsed with PBS and fixed with 4% paraformaldehyde (Thermo Scientific) for 10 min at room temperature and quenched for 5 min with 2% glycine in PBS, pH 7.5. […] After a 2 h incubation at 37 °C in a final volume of 100 μl, the excess peptides were washed, and the cells were blocked with 5% BSA (BD Biosciences). […] Colorimetric changes were analyzed by reading the absorbance at 450 nm in a SpectraMax M5 (Molecular Device) microplate reader. The peptide concentration was plotted against UV absorbance, and the Kd was calculated using Origin 7.0 software.
For orientation: In an ELISA, binding on a coated surface is turned into a signal by an enzyme label.

The target of another data set is T2, DPP IV enzyme (Homo sapiens, UniProt P27487).
T2 construct: purchased Sigma-Aldrich
Nature of the data set: Stability against DPP IV proteolysis with or without HSA. The following applies: for degradation in DPP IV proteolysis compared with wild-type GLP-1, within 24 h / detectability of full-length peptide at 24 h: DPP IV 0.1 mg/ml, peptide 1 mg/ml; for degradation in DPP IV proteolysis compared with wild-type GLP-1, within 24 h: 25 mM potassium phosphate, 25 mM KCl, 5 mM MgCl2, pH 7.0, 2% HSA; for detectability of full-length peptide at 24 h: pH 7.0, in the presence of human serum albumin (2%). Format: in vitro ADME.

The nature of data set [2]: Blood retention time measurement. The following applies: 500 μg/kg s.c., Wistar rats, n = 5, GLP-1 (7–37) ELISA.
Setting [3] is: DPP IV proteolysis solution, 37 °C, GLP-1 (7–37) ELISA, P < 0.01.

T2 sequence (P27487 whole entry, species assumed): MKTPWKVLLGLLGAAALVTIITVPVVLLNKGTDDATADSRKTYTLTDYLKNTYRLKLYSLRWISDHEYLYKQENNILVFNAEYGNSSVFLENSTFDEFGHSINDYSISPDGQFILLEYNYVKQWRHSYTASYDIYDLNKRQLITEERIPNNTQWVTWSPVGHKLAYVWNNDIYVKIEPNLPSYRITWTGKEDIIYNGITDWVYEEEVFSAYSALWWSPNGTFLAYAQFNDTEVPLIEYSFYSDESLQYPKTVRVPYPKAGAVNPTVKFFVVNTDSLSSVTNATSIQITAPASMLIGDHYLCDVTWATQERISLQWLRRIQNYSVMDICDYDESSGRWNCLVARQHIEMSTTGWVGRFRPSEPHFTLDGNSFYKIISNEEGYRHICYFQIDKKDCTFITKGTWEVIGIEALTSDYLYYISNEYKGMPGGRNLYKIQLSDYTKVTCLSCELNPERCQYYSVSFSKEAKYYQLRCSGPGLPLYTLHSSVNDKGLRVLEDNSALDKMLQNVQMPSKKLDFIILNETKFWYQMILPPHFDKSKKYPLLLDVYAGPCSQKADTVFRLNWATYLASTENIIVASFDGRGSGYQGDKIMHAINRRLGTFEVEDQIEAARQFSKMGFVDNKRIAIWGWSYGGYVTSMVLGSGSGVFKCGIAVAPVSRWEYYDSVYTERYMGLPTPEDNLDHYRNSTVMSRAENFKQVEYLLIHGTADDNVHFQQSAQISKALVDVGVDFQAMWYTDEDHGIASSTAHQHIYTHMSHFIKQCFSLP
Procedure for DPP IV enzyme: DPP IV enzyme (0.1 mg/ml) was dissolved in 25 mM potassium phosphate buffer containing 25 mM potassium chloride and 5 mM magnesium chloride, pH 7.0.

Turning to `CC[C@H](C)[C@H](NC(=O)[C@H](Cc1ccccc1)NC(=O)[C@H](CCC(=O)O)NC(=O)[C@H](CCCCN)NC(=O)[C@H](C)NC(=O)[C@H](C)NC(=O)[C@H](CCC(N)=O)NC(=O)CNC(=O)[C@H](CCC(=O)O)NC(=O)[C@H](CC(C)C)NC(=O)[C@H](Cc1ccc(O)cc1)NC(=O)[C@H](CO)NC(=O)[C@H](CO)NC(=O)[C@@H](NC(=O)[C@H](CC(=O)O)NC(=O)[C@H](CO)NC(=O)[C@@H](NC(=O)[C@H](Cc1ccccc1)NC(=O)[C@@H](NC(=O)CNC(=O)[C@H](CCC(=O)O)NC(=O)[C@H](C)NC(=O)[C@@H](N)Cc1c[nH]cn1)[C@@H](C)O)[C@@H](C)O)C(C)C)C(=O)N[C@@H](C)C(=O)N[C@@H](Cc1c[nH]c2ccccc12)C(=O)N[C@@H](CC(C)C)C(=O)N[C@H](C(=O)N[C@@H](CCCCN)C(=O)NCC(=O)N[C@@H](CCCN=C(N)N)C(=O)NCC(=O)O)C(C)C` [GLP-1, glucagon-like peptide-1], the “stability (half-life) of native GLP-1” value in data set [1] (degradation by DPP-IV, reference not given) was 3 to 5 min. For the same compound, in data set [1] (in vivo), the renal clearance entry is on record as “less than 10 min”.
For the compound `CCCCCCCCCCCCNC(=O)CC[C@H](NC(=O)[C@H](CCCCN)NC(=O)[C@H](C)NC(=O)[C@H](C)NC(=O)[C@H](CCC(N)=O)NC(=O)CNC(=O)[C@H](CCC(=O)O)NC(=O)[C@H](CC(C)C)NC(=O)[C@H](Cc1ccc(O)cc1)NC(=O)[C@H](CO)NC(=O)[C@H](CO)NC(=O)[C@@H](NC(=O)[C@H](CC(=O)O)NC(=O)[C@H](CO)NC(=O)[C@@H](NC(=O)[C@H](Cc1ccccc1)NC(=O)[C@@H](NC(=O)CNC(=O)[C@H](CCC(=O)O)NC(=O)[C@H](C)NC(=O)[C@@H](N)Cc1c[nH]cn1)[C@@H](C)O)[C@@H](C)O)C(C)C)C(=O)N[C@@H](Cc1ccccc1)C(=O)N[C@H](C(=O)N[C@@H](C)C(=O)N[C@@H](Cc1c[nH]c2ccccc12)C(=O)N[C@@H](CC(C)C)C(=O)N[C@H](C(=O)N[C@@H](CCCCN)C(=O)NCC(=O)N[C@@H](CCCNC(=N)N)C(=O)NCC(=O)O)C(C)C)[C@@H](C)CC` [compound 17], binding at GLP-1 receptor (GLP-1R) was put at a Kd of 0.0187 ± 0.00213 µM. Further, at DPP IV enzyme (37 °C, GLP-1 (7–37) ELISA), the “degradation in DPP IV proteolysis compared with wild-type GLP-1, within 24 h” value is listed as “slower degradation rates” and the “detectability of full-length peptide at 24 h” value (“detectability” for short) is recorded as “still detectable at 24 h”.
Turning to `CCCCCCCCCCCCCCCCNC(=O)CC[C@H](NC(=O)[C@H](CCCCN)NC(=O)[C@H](C)NC(=O)[C@H](C)NC(=O)[C@H](CCC(N)=O)NC(=O)CNC(=O)[C@H](CCC(=O)O)NC(=O)[C@H](CC(C)C)NC(=O)[C@H](Cc1ccc(O)cc1)NC(=O)[C@H](CO)NC(=O)[C@H](CO)NC(=O)[C@@H](NC(=O)[C@H](CC(=O)O)NC(=O)[C@H](CO)NC(=O)[C@@H](NC(=O)[C@H](Cc1ccccc1)NC(=O)[C@@H](NC(=O)CNC(=O)[C@H](CCC(=O)O)NC(=O)[C@H](C)NC(=O)[C@@H](N)Cc1c[nH]cn1)[C@@H](C)O)[C@@H](C)O)C(C)C)C(=O)N[C@@H](Cc1ccccc1)C(=O)N[C@H](C(=O)N[C@@H](C)C(=O)N[C@@H](Cc1c[nH]c2ccccc12)C(=O)N[C@@H](CC(C)C)C(=O)N[C@H](C(=O)N[C@@H](CCCCN)C(=O)NCC(=O)N[C@@H](CCCNC(=N)N)C(=O)NCC(=O)O)C(C)C)[C@@H](C)CC` [compound 18], on GLP-1 receptor (GLP-1R), the dissociation constant Kd – broadly, the free concentration of one partner at which half of the binding sites on the other are occupied at equilibrium, for simple one-to-one binding – was 0.0165 ± 0.00217 µM. Further, at DPP IV enzyme (37 °C, GLP-1 (7–37) ELISA), the “degradation in DPP IV proteolysis compared with wild-type GLP-1, within 24 h” value is “slower degradation rates” and the “detectability” value is “still detectable at 24 h”.
`CCCCCCCCCCCCCCCCNC(=O)C[C@H](NC(=O)[C@@H](NC(=O)[C@H](CC(C)C)NC(=O)[C@H](Cc1c[nH]c2ccccc12)NC(=O)[C@H](C)NC(=O)[C@@H](NC(=O)[C@H](Cc1ccccc1)NC(=O)[C@H](CCC(=O)O)NC(=O)[C@H](CCCCN)NC(=O)[C@H](C)NC(=O)[C@H](C)NC(=O)[C@H](CCC(N)=O)NC(=O)CNC(=O)[C@H](CCC(=O)O)NC(=O)[C@H](CC(C)C)NC(=O)[C@H](Cc1ccc(O)cc1)NC(=O)[C@H](CO)NC(=O)[C@H](CO)NC(=O)[C@@H](NC(=O)[C@H](CC(=O)O)NC(=O)[C@H](CO)NC(=O)[C@@H](NC(=O)[C@H](Cc1ccccc1)NC(=O)[C@@H](NC(=O)CNC(=O)[C@H](CCC(=O)O)NC(=O)[C@H](C)NC(=O)[C@@H](N)Cc1c[nH]cn1)[C@@H](C)O)[C@@H](C)O)C(C)C)[C@@H](C)CC)C(C)C)C(=O)NCC(=O)N[C@@H](CCCNC(=N)N)C(=O)NCC(=O)O` [compound 21]: the Kd on GLP-1 receptor (GLP-1R) came out at 0.0175 ± 0.00275 µM. In addition, on DPP IV enzyme (37 °C, GLP-1 (7–37) ELISA), the “detectability” value is recorded as “still detectable at 24 h”. The “AUCGLP-1(7–37) in proteolysis solution compared to native GLP-1” value on DPP IV enzyme (setting [3]) is “significantly increased”.
For the compound `CC[C@H](C)[C@H](NC(=O)[C@H](Cc1ccccc1)NC(=O)[C@H](CCC(=O)O)NC(=O)[C@H](CCCCN)NC(=O)[C@H](C)NC(=O)[C@H](C)NC(=O)[C@H](CCC(N)=O)NC(=O)CNC(=O)[C@H](CCC(=O)O)NC(=O)[C@H](CC(C)C)NC(=O)[C@H](Cc1ccc(O)cc1)NC(=O)[C@H](CO)NC(=O)[C@H](CO)NC(=O)[C@@H](NC(=O)[C@H](CC(=O)O)NC(=O)[C@H](CO)NC(=O)[C@@H](NC(=O)[C@H](Cc1ccccc1)NC(=O)[C@@H](NC(=O)CNC(=O)[C@H](CCC(=O)O)NC(=O)[C@H](C)NC(=O)[C@@H](N)Cc1c[nH]cn1)[C@@H](C)O)[C@@H](C)O)C(C)C)C(=O)N[C@@H](C)C(=O)N[C@@H](Cc1c[nH]c2ccccc12)C(=O)N[C@@H](CC(C)C)C(=O)N[C@H](C(=O)N[C@@H](CC(=O)NCCCCCCCCCCCC(=O)O)C(=O)NCC(=O)N[C@@H](CCCNC(=N)N)C(=O)NCC(=O)O)C(C)C` [compound 22], in data set [2] (0.5-96 h), the “increase of circulating amount (AUC GLP-1 (7-37)) compared with native GLP-1” value was 2.6 fold. The “blood retention / serum level behaviour” value in data set [2] is reported as “extended the stabilities in vivo”. At GLP-1 receptor (GLP-1R), this compound gave a Kd of 0.0211 ± 0.00234 µM. Moreover, the “detectability” value at DPP IV enzyme (37 °C, GLP-1 (7–37) ELISA) was “still detectable at 24 h”. Also, the “AUC0–24 h, amount of undigested GLP-1 fragments compared with wild-type GLP-1” value on DPP IV enzyme (DPP IV proteolysis solution, 37 °C, 0-24 h, GLP-1 (7–37) ELISA, P < 0.01) is on record as “approximately 3.5 fold”. For the same compound, the “AUCGLP-1(7–37) in proteolysis solution compared to native GLP-1” value on DPP IV enzyme (setting [3]) is listed as “significantly increased”. The “degradation rate against DPP IV compared with compounds 6 and 21, respectively” value on DPP IV enzyme (DPP IV proteolysis, same carbon chain length without free carboxyl group as comparator) is reported as “significantly lower degradation rates”.
At GLP-1 receptor (GLP-1R), `CC[C@H](C)[C@H](NC(=O)[C@H](Cc1ccccc1)NC(=O)[C@H](CCC(=O)O)NC(=O)[C@H](CCCCN)NC(=O)[C@H](C)NC(=O)[C@H](C)NC(=O)[C@H](CCC(N)=O)NC(=O)CNC(=O)[C@H](CCC(=O)NCCCCCCCCCCCC(=O)O)NC(=O)[C@H](CC(C)C)NC(=O)[C@H](Cc1ccc(O)cc1)NC(=O)[C@H](CO)NC(=O)[C@H](CO)NC(=O)[C@@H](NC(=O)[C@H](CC(=O)O)NC(=O)[C@H](CO)NC(=O)[C@@H](NC(=O)[C@H](Cc1ccccc1)NC(=O)[C@@H](NC(=O)CNC(=O)[C@H](CCC(=O)O)NC(=O)[C@H](C)NC(=O)[C@@H](N)Cc1c[nH]cn1)[C@@H](C)O)[C@@H](C)O)C(C)C)C(=O)N[C@@H](C)C(=O)N[C@@H](Cc1c[nH]c2ccccc12)C(=O)N[C@@H](CC(C)C)C(=O)N[C@H](C(=O)N[C@@H](CCCCN)C(=O)NCC(=O)N[C@@H](CCCNC(=N)N)C(=O)NCC(=O)O)C(C)C` [compound 23] had a dissociation constant (Kd) of 0.0243 ± 0.00196 µM. The “detectability” value on DPP IV enzyme (37 °C, GLP-1 (7–37) ELISA) is listed as “still detectable at 24 h”. Besides, on DPP IV enzyme (setting [3]), the “AUCGLP-1(7–37) in proteolysis solution compared to native GLP-1” value is listed as “significantly increased”.

(Values after PMC4676015, “Variant fatty acid-like molecules Conjugation, novel approaches for extending the stability of therapeutic peptides” (Scientific Reports, 2015).)
